≈ marks a conversion by molar mass, not a printed value.
Experiments:
[1] = tested on: Mycobacterium tuberculosis; assay: Antimycobacterial activity against Mycobacterium tuberculosis H37Rv harboring cyd deletion mutant measured after 2 weeks by microplate alamar blue assay; type: functional
[2] = tested on: Mycobacterium tuberculosis H37Rv; assay: Inhibition of QCR2 M342T mutant in Mycobacterium tuberculosis H37Rv harboring cyd deletion mutant assessed as reduction in bacterial growth relative to wild-type QCR2
[3] = tested on: Mycobacterium tuberculosis H37Rv; assay: Inhibition of QCR5 M342I mutant in Mycobacterium tuberculosis H37Rv harboring cyd deletion mutant assessed as reduction in bacterial growth relative to wild-type QCR5
[4] = tested on: Mycobacterium tuberculosis H37Rv; assay: Inhibition of QCR3 W312G mutant in Mycobacterium tuberculosis H37Rv harboring cyd deletion mutant assessed as reduction in bacterial growth relative to wild-type QCR3
[5] = tested on: Mycobacterium tuberculosis H37Rv; assay: Inhibition of QCR1 A317V mutant in Mycobacterium tuberculosis H37Rv harboring cyd deletion mutant assessed as reduction in bacterial growth relative to wild-type QCR1
[6] = tested on: Mycobacterium tuberculosis H37Rv; assay: Inhibition of QCR4 A396T mutant in Mycobacterium tuberculosis H37Rv harboring cyd deletion mutant assessed as reduction in bacterial growth relative to wild-type QCR4
[7] = tested on: Mycobacterium tuberculosis H37Rv; assay: Inhibition of QCR7 S182T mutant in Mycobacterium tuberculosis H37Rv harboring cyd deletion mutant assessed as reduction in bacterial growth relative to wild-type QCR7
[8] = tested on: Mycobacterium tuberculosis H37Rv; assay: Inhibition of QCR6 A317T mutant in Mycobacterium tuberculosis H37Rv harboring cyd deletion mutant assessed as reduction in bacterial growth relative to wild-type QCR6

| Structure (SMILES) | MIC [1] | fold change (FC) [2] | fold change (FC) [3] | fold change (FC) [4] | fold change (FC) [5] | fold change (FC) [6] | fold change (FC) [7] | fold change (FC) [8] |
| --- | --- | --- | --- | --- | --- | --- | --- | --- |
| COc1ccc2nc(C)cc(OCC(=O)NCCc3ccccc3)c2c1 | 4.45 µM (≈ 1.56 µg/mL) | – | – | – | – | – | – | – |
| CC(=O)NC[C@H]1CN(c2ccc(N3CCOCC3)c(F)c2)C(=O)O1 [LINEZOLID] | 1.56 µM (≈ 0.526 µg/mL) | – | – | – | – | – | – | – |
| COc1ccc2nc(C)cc(OCC(=O)Nc3ccccc3OC)c2c1 | 0.14 µM (≈ 0.0493 µg/mL) | 1.4 | 6.1 | 46.9 | 46.9 | 4.1 | 15.9 | 24.5 |
| COc1ccc2nc(C)cc(OCC(=O)Nc3cccc(Br)c3)c2c1 | 0.37 µM (≈ 0.148 µg/mL) | – | – | – | – | – | – | – |
| COc1ccccc1NC(=O)COc1cc(C)nc2ccccc12 | 7.13 µM (≈ 2.3 µg/mL) | – | – | – | – | – | – | – |
| COc1ccc2nc(C)cc(OCC(=O)NCCc3ccc(OC)c(OC)c3)c2c1 | 90.13 µM (≈ 37 µg/mL) | – | – | – | – | – | – | – |
| COc1cc(NC(=O)COc2cc(C)nc3ccc(OC)cc23)cc(OC)c1 | 2.04 µM (≈ 0.78 µg/mL) | – | – | – | – | – | – | – |
| COc1ccc2nc(C)cc(OCC(=O)Nc3ccc(Br)cc3)c2c1 | 0.17 µM (≈ 0.0682 µg/mL) | – | – | – | – | – | – | – |
| COc1cccc(NC(=O)COc2cc(C)nc3ccc(OC)cc23)c1 | 0.57 µM (≈ 0.201 µg/mL) | – | – | – | – | – | – | – |
| COc1ccc2nc(C)cc(OCC(=O)Nc3ccc(-c4ccccc4)cc3)c2c1 | 0.12 µM (≈ 0.0478 µg/mL) | – | – | – | – | – | – | – |
| COc1ccc(NC(=O)COc2cc(C)nc3ccc(OC)cc23)c(OC)c1 | 0.18 µM (≈ 0.0688 µg/mL) | – | – | – | – | – | – | – |
| C#CCNC(=O)COc1cc(C)nc2ccc(OC)cc12 | 21.98 µM (≈ 6.25 µg/mL) | – | – | – | – | – | – | – |
| COc1ccccc1NC(=O)COc1cc(C)nc2ccc(Cl)cc12 | 1.09 µM (≈ 0.389 µg/mL) | – | – | – | – | – | – | – |
| COCCNC(=O)COc1cc(C)nc2ccc(OC)cc12 | 41.06 µM (≈ 12.5 µg/mL) | – | – | – | – | – | – | – |
| CCCCCNC(=O)COc1cc(C)nc2ccc(OC)cc12 | 0.95 µM (≈ 0.301 µg/mL) | – | – | – | – | – | – | – |
| COc1ccc2nc(C)cc(OCC(=O)NCc3ccc4c(c3)OCO4)c2c1 | <0.063 µM | > 12.5 | > 12.5 | > 25 | > 130 | > 6.3 | > 95.8 | > 32.5 |

| Structure (SMILES) | MIC [1] | fold change (FC) [2] | fold change (FC) [3] | fold change (FC) [4] | fold change (FC) [5] | fold change (FC) [6] | fold change (FC) [7] | fold change (FC) [8] |
| --- | --- | --- | --- | --- | --- | --- | --- | --- |
| COc1ccccc1NC(=O)COc1cc(C)nc2ccc(C(F)(F)F)cc12 | >128 µM | – | – | – | – | – | – | – |
| COc1ccc2nc(C)cc(OCC(=O)NCCc3ccc4c(c3)OCO4)c2c1 | 3.04 µM (≈ 1.2 µg/mL) | – | – | – | – | – | – | – |
| COc1ccc2nc(C)cc(OCC(=O)NCc3ccccc3)c2c1 | 0.59 µM (≈ 0.198 µg/mL) | 3 | 3.9 | 47 | > 250 | 3.9 | 15.7 | 23.5 |
| COc1ccc(OC)c(CCNC(=O)COc2cc(C)nc3ccc(OC)cc23)c1 | 7.62 µM (≈ 3.13 µg/mL) | – | – | – | – | – | – | – |
| c1ccc(Cn2cnc3c(-c4ccco4)nccc32)cc1 | 0.31 µM (≈ 0.0853 µg/mL) | 20.2 | 20.2 | > 81 | > 81 | 20.2 | 61.3 | 10.1 |
| COc1ccc2nc(C)cc(OCC(=O)Nc3ccc(C)cc3)c2c1 | <0.071 µM | > 2 | 1 | > 16.3 | > 32.5 | > 2 | > 16.3 | > 12.5 |
| COc1ccccc1NC(=O)COc1cc(C)nc2ccc(Br)cc12 | 0.5 µM (≈ 0.201 µg/mL) | – | – | – | – | – | – | – |
| COc1ccc2nc(C)cc(OCC(=O)Nc3ccc4c(c3)OCO4)c2c1 | 0.19 µM (≈ 0.0696 µg/mL) | 2.1 | 1.4 | 17.1 | 134 | 5.6 | 32.9 | 32.9 |
| COc1ccc2nc(C)cc(OCC(=O)Nc3ccccc3)c2c1 | 0.12 µM (≈ 0.0387 µg/mL) | 3.8 | 1.8 | 235 | > 1250 | 5 | 19.5 | 30 |
| COc1ccc2nc(C)cc(OCC(=O)NCCCc3ccccc3)c2c1 | 2.14 µM (≈ 0.78 µg/mL) | – | – | – | – | – | – | – |
| COc1ccc2nc(C)cc(OCC(=O)Nc3ccc(OC)c(OC)c3)c2c1 | 3.14 µM (≈ 1.2 µg/mL) | – | – | – | – | – | – | – |
| COc1ccc2nc(C)cc(OCC(=O)Nc3ccccc3Cl)c2c1 | <0.067 µM | – | – | – | – | – | – | – |
| COc1ccccc1NC(=O)COc1cc(C)nc2ccc(C)cc12 | 0.45 µM (≈ 0.151 µg/mL) | – | – | – | – | – | – | – |
| Nc1ccc(C(=O)O)c(O)c1 [AMINOSALICYLIC ACID] | 0.6 µM (≈ 0.0919 µg/mL) | 0.3 | 0.5 | 0.5 | 0.5 | 0.3 | 0.5 | 0.2 |
| COc1ccc(NC(=O)COc2cc(C)nc3ccc(OC)cc23)cc1 | 0.14 µM (≈ 0.0493 µg/mL) | 4.1 | 3.1 | 24.5 | 63.9 | 3.1 | 15.9 | 24.5 |
| COc1ccc2nc(C)cc(OCC(=O)Nc3ccc(Cl)cc3)c2c1 | 0.2 µM (≈ 0.0714 µg/mL) | – | – | – | – | – | – | – |

Reference: ChEMBL document CHEMBL4190162, “SAR and identification of 2-(quinolin-4-yloxy)acetamides as Mycobacterium tuberculosis cytochrome bc1 inhibitors” (Medchemcomm, 2016)
